Experimental data taken from patent publication US20090318446A1, “4-(1H-Indol-3-yl)-Pyrimidin-2-Ylamine Derivatives and Their Use in Therapy” (Cyclacel Limited, priority 2005, published 2009).
Read-outs that look alike come from different tables or passages of the source.

Experiments:
Type in all cases: biochemical
[1] = molecular target: T1, Flt-3 (Homo sapiens, UniProt P36888); test: Flt3 kinase assay
T1 construct: purchased Upstate, Dundee, UK
T1 sequence (P36888 564-993 limits assumed): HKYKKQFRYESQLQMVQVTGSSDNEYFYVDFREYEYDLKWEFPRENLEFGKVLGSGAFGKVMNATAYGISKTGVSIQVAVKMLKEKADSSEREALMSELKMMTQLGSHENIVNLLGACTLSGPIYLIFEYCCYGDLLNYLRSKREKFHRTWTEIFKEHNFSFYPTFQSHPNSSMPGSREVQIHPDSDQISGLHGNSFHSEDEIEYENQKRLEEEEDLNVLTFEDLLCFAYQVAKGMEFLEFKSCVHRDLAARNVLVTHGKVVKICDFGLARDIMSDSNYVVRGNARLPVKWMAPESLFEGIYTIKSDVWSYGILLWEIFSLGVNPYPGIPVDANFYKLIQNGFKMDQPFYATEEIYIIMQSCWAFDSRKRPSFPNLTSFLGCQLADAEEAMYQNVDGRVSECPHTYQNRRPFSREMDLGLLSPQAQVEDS
Description: This was achieved by measurement of incorporation of radioactive phosphate from ATP into myelin basic protein (MBP) substrate, upon phosphorylation by commercially obtained Flt-3 Upstate, Dundee, UK). Assays were performed using 96-well plates and appropriate assay buffers (20 mM Tris, 25 mM β-glycerophosphate, 5 mM EGTA, 1 mM DTT, 1 mM sodium vanadate, pH 7.5), into which were added 5 ng of active enzyme with 0.4 mg/ml substrate (MBP). The reactions were initiated by addition of MgATP mix (15 mM MgCl2+100 μM ATP with 15-25 kBq per well of [γ-^32P]-ATP) and mixtures incubated for 30 min at 30° C. Reactions were stopped by addition of an equal volume of 75 mM aq orthophosphoric acid, followed by filtration through p81 filterplates (Whatman Polyfiltronics, Kent, UK). After washing 4 times with 75 mM aq orthophosphoric acid, plates were dried, scintillant added and incorporated radioactivity measured in a scintillation counter (TopCount, Packard Instruments, Pangbourne, Berks, UK). Compounds for kinase assay were made up as 10 mM stocks in DMSO and diluted into 10% DMSO in assay buffer. Data was analysed using curve-fitting software (XLfit version 4.0.2, IDBS, Guildford, Surrey, UK) to determine IC50 values (concentration of test compound which inhibits kinase activity by 50%).

[2] = molecular target: CDK2/cyclin E (Homo sapiens, UniProt P24941); test: Kinase assay CDK2/cyclin E
Description: The compounds from the examples above were investigated for their ability to inhibit the enzymatic activity of various protein kinases. This was achieved by measurement of incorporation of radioactive phosphate from ATP into appropriate polypeptide substrates. Recombinant protein kinases and kinase complexes were produced or obtained commercially. Assays were performed using 96-well plates and appropriate assay buffers (typically 25 mM β-glycerophosphate, 20 mM MOPS, 5 mM EGTA, 1 mM DTT, 1 mM […], pH 7.4), into which were added 2-4 μg of active enzyme with appropriate substrates. The reactions were initiated by addition of Mg/ATP mix (15 mM MgCl2+100 μM ATP with 30-50 kBq per well of [γ-^32P]-ATP) and mixtures incubated as required at 30° C. Reactions were stopped on ice, followed by filtration through p81 filterplates or GF/C filterplates (Whatman Polyfiltronics, Kent, UK). After washing 3 times with 75 mM aq orthophosphoric acid, plates were dried, scintillant added and incorporated radioactivity measured in a scintillation counter (TopCount, Packard Instruments, Pangbourne, Berks, UK). Compounds for kinase assay were made up as 10 mM stocks in DMSO and diluted into 10% DMSO in assay buffer. Data was analysed using curve-fitting software (GraphPad Prism version 3.00 for Windows, GraphPad Software, San Diego Calif. USA) to determine IC50 values (concentration of test compound which inhibits kinase activity by 50%).

[3] = molecular target: CDK9/cyclin T1 (Homo sapiens, UniProt P50750); test: CDK 9 assay
Description: CTD peptide substrate (biotinyl-Ahx-(Tyr-Ser-Pro-Thr-Ser-Pro-Ser)4-NH2; 1-2 mg/mL) and recombinant human CDK7/cyclin H, CDK9/cyclin TI, or CDK9/cyclin K (0.5-2 μg) were incubated for 45 min at 30° C. in the presence of varying amounts of test compound in 20 mM MOPS pH 7.2, 25 mM β-glycerophosphate, 5 mM EGTA, 1 mM DTT, 1 mM sodium vanadate, 15 mM MgCl2, and 100 μM ATP (containing a trace amount of ^32PγATP) in a total volume of 25 μL in a 96-well microtiter plate. The reaction was stopped by placing the plate on ice for 2 min. Avidin (50 μg) was added to each well, and the plate was incubated at room temp for 30 min. The samples were transferred to a 96-well P81 filter plate, and washed (4×200 μL per well) with 75 mM phosphoric acid. Microscint 40 scintillation liquid (50 μL) was added to each well, and the amount of ^32P incorporation for each sample was measured using a Packard Topcount microplate scintillation counter.

[4] = Table 2, read-out: Kinase inhibition IC50 FLT3
[5] = Table 3, read-out: Kinase inhibition Flt3
[6] = Table 2, read-out: Kinase inhibition IC50 CDK2E
[7] = Table 3, read-out: Kinase inhibition CDK2E
[8] = Table 2, read-out: Kinase inhibition IC50 CDK9T1
[9] = Table 3, read-out: Kinase inhibition CDK9T1

Chain of CDK9/cyclin T1 (P50750 whole entry): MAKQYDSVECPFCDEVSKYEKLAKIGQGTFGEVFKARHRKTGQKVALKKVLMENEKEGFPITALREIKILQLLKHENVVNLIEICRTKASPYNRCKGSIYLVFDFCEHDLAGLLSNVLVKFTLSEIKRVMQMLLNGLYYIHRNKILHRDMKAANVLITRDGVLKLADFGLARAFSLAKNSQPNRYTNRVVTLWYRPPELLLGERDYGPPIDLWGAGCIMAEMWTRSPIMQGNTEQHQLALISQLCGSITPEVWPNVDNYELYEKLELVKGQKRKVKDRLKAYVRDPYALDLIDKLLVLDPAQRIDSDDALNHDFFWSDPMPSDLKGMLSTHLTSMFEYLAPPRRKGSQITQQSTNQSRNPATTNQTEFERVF
Chain of CDK9/cyclin T1 (O60563 whole entry partner): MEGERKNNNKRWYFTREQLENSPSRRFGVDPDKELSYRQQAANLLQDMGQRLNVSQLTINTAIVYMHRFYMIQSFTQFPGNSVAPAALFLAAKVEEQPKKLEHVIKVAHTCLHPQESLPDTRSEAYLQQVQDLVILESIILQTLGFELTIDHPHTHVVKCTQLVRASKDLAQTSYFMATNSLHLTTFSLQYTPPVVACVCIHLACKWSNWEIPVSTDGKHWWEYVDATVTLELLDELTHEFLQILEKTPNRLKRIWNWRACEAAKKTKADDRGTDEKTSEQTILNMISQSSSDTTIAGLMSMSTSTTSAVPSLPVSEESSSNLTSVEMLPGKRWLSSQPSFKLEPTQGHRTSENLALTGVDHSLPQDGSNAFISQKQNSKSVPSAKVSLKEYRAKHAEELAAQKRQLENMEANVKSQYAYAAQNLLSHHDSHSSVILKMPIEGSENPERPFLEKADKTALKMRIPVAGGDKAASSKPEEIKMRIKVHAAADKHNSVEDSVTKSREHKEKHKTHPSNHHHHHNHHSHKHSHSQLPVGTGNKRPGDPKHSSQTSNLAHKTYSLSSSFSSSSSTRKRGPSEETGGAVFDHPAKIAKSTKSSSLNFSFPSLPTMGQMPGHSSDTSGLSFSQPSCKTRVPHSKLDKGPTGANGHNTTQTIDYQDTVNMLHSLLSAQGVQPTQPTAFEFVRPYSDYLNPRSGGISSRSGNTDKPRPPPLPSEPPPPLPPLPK

Compound | IC50 [1, 4] [µM] | IC50 [1, 5] [µM] | IC50 [2, 6] [µM] | IC50 [2, 7] [µM] | IC50 [3, 8] [µM] | IC50 [3, 9] [µM]
O=[N+]([O-])c1cccc(Nc2nccc(-c3c[nH]c4ccccc34)n2)c1 [Compound 2, [4-(1H-Indol-3-yl)-pyrimidin-2-yl]-(3-nitro-phenyl)-amine] | 0.13 | 0.133 | 2.9 | 2.95 | 6.1 | 6.08
Fc1ccc(Nc2nccc(-c3c[nH]c4ccccc34)n2)cc1 [Compound 3, (4-Fluoro-phenyl)-[4-(1H-indol-3-yl)-pyrimidin-2-yl]-amine] | 0.27 | 0.274 | 1.2 | 1.17 | > 100 | 
COc1ccc(Nc2nccc(-c3c[nH]c4ccccc34)n2)cn1 [Compound 4, [4-(1H-Indol-3-yl)-pyrimidin-2-yl]-(6-methoxy-pyridin-3-yl)-amine] | 0.15 | 0.148 | 1.3 | 1.25 | 2.8 | 2.82
c1ccc2c(-c3ccnc(Nc4ccc(N5CCOCC5)cc4)n3)c[nH]c2c1 [Compound 5, [4-(1H-Indol-3-yl)-pyrimidin-2-yl]-(4-morpholin-4-yl-phenyl)-amine] | 0.052 | 0.0516 | > 10 |  | > 10 | 
CC(=O)N1CCN(c2ccc(Nc3nccc(-c4c[nH]c5ccccc45)n3)cc2)CC1 [Compound 6, 4-(1H-indol-3-yl)-N-(4-acetylpiperazin-1-ylphenyl)pyrimidin-2-amine] |  | 0.0133 |  | 4.5 |  | 2.08
c1ccc2c(-c3ccnc(Nc4ccc(N5CCNCC5)cc4)n3)c[nH]c2c1 [Compound 7, 4-(1H-indol-3-yl)-N-(4-piperazin-1-ylphenyl)pyrimidin-2-amine] |  | 0.0127 |  | 1.93 |  | 0.52
CC1CN(c2ccc(Nc3nccc(-c4c[nH]c5ccccc45)n3)cc2)CC(C)O1 (stereo not drawn) [Compound 9] |  | 0.0298 |  | 4.91 |  | 3.03
CN(C)c1ccc(Nc2nccc(-c3c[nH]c4ccccc34)n2)cc1 [Compound 10, N′-[4-(1H-indol-3-yl)pyrimidin-2-yl]-N,N-dimethylbenzene-1,4-diamine] |  | 0.0849 |  | 2.35 |  | 1.59
COc1cc(Nc2nccc(-c3c[nH]c4ccccc34)n2)cc(OC)c1OC [Compound 12, 4-(1H-indol-3-yl)-N-(3,4,5-trimethoxyphenyl)pyrimidin-2-amine] |  | 0.0013 |  | 1.82 |  | 1.26
COc1cc(Nc2nccc(-c3c[nH]c4ccccc34)n2)ccc1N1CCOCC1 [Compound 13, 4-(1H-indol-3-yl)-N-(3-methoxyl-4-morpholin-4-ylphenyl)pyrimidin-2-amine] |  | 0.0024 |  | 7.6 |  | 4.24
CC(=O)N1CCN(c2ccc(Nc3nccc(-c4c(C)[nH]c5ccccc45)n3)cc2)CC1 [Compound 22] |  | 0.011 |  | 5.15 |  | 4.44
CC(=O)N1CCN(c2ccc(Nc3nccc(-c4c[nH]c5c(C)cccc45)n3)cc2)CC1 [Compound 23] |  | 0.0332 |  | 2.43 |  | 1.54
